Here are results for 51 compounds from PubChem BioAssay AID1996.

Molecules are shown by their SMILES. Converted amounts (≈) assume the structure as drawn. Some results are limits rather than exact numbers.

For this data set the following is noted: buffer; pH 7.4; 200.0 µM.
`CC(=O)c1ccc(N2CCN(C(=O)Nc3cccc(F)c3)CC2)cc1`: the solubility (kinetic) worked out at 4.8 µg/mL (≈ 14.1 µM).
`O=C1NC(=O)C(c2ccccc2)(c2ccccc2)N1`: the solubility (kinetic) was more than 37.8 µg/mL.
The figure for `COC1Cc2ccccc2N(C(N)=O)c2ccccc21` (stereo unspecified) is more than 40.2 µg/mL.
With `COCCn1c(=S)[nH]c2ccccc21`, the solubility (kinetic) was more than 31.2 µg/mL.
`Cc1ccc(CNS(=O)(=O)c2ccccc2[N+](=O)[O-])cc1` yielded a kinetic solubility of 38.7 µg/mL (≈ 126 µM).
For the compound `Cc1ccc(C#N)c(SCc2ccccc2F)n1`, the kinetic solubility is less than 0.3 µg/mL.
Compound `CSc1ncccc1C(=O)OCCCC(=O)c1ccc(F)cc1` displayed a kinetic solubility of 3.8 µg/mL (≈ 11.4 µM).
The figure for `Cc1cc(=O)oc2cc(OCC(=O)N3CCC(C(N)=O)CC3)ccc12` is more than 51.7 µg/mL.
The figure for `CC(C)NC(=S)N1CCCN(c2ncccc2[N+](=O)[O-])CC1` is more than 48.5 µg/mL.
The figure for `CC(=O)N(c1ccccc1C)S(=O)(=O)c1ccc(Cl)cc1` is 34.3 µg/mL (≈ 106 µM); for `CC(C)CCC(C)NC(=O)Cc1ccc(S(=O)(=O)N2CCOCC2)s1` (stereo unspecified) it is 47 µg/mL (≈ 121 µM); for `NS(=O)(=O)c1ccc(Nc2nc(-c3cccnc3)cs2)cc1` it is less than 0.2 µg/mL.
For `Cn1c(CCC(=O)O)nc2cc(S(=O)(=O)N3CCCC3)ccc21`, the solubility (kinetic) was more than 50.6 µg/mL.
The compound `O=C(/C=C/c1ccco1)N1CCN(S(=O)(=O)c2cccc([N+](=O)[O-])c2)CC1` gave a kinetic solubility of 28.1 µg/mL (≈ 71.8 µM).
Compound `CC1CCN(C(=O)c2ccc3ccccc3c2)CC1` showed a solubility (kinetic) of 23.8 µg/mL (≈ 93.9 µM).
The figure for `CN(C)S(=O)(=O)c1cccc(C(=O)NCCCn2ccnc2)c1` is more than 50.5 µg/mL.
Under `Cc1c(-c2ccc(Br)cc2)[n+](=O)c2c(n1[O-])CCCC2` stands more than 50.3 µg/mL.
The figure for `CCOc1ccc(OCCCC(=O)NCCOc2ccccc2OC)cc1` is more than 56 µg/mL; for `Fc1ccc(CNc2ncnc3cc(Cl)ccc23)cc1` it is 3.5 µg/mL (≈ 12.2 µM); for `C[N+]12CCCCC1[C@@H](CO)CCC2.[Br-]` (stereo partly specified) it is 39.1 µg/mL.
Take `O=C1NC2(CCCCC2)C(=O)N1Cc1cccc(C(F)(F)F)c1`: the kinetic solubility was determined as 8.4 µg/mL (≈ 25.7 µM). This solubility kinetic is about 4.7-fold lower than that of the compound before.
The figure for `Cc1ccc(C#CC[N+]2(C)CCCCC2)cc1.[Br-]` is more than 46.2 µg/mL.
The figure for `O=C(CSc1ccccc1)Nc1ccc2sccc2c1` is 0.7 µg/mL (≈ 2.34 µM).
In turn, `Oc1ccc2ccccc2c1C=NC1CCCCC1` returned a kinetic solubility of more than 38 µg/mL.
With `NC1=NC(=O)/C(=C\c2ccco2)S1`, the solubility (kinetic) is more than 29.1 µg/mL.
`O=C(Cc1ccc(Cl)cc1Cl)NC1CCCCCC1` yielded a solubility (kinetic) of 2.2 µg/mL (≈ 7.33 µM).
The figure for `CC(=O)NS(=O)(=O)c1ccc(NC(=O)C(C)NS(=O)(=O)/C=C/c2ccccc2)cc1` (stereo unspecified) is 63.3 µg/mL (≈ 140 µM); for `O=C1c2ccccc2C(=O)N1Cc1cc(Cl)c(O)c([N+](=O)[O-])c1` it is more than 49.9 µg/mL.
`C[C@@H](C(=O)OCC(=O)c1ccc(F)c(F)c1)N1C(=O)C2CCCCC2C1=O` (stereo partly specified) had a solubility (kinetic) of more than 56.9 µg/mL.
Under `O=C(N/C=C/c1ccco1)Nc1cccc(Cl)c1` stands 31.3 µg/mL (≈ 119 µM).
Compound `CCOc1ccc(C2=CSC3=NCCN23)cc1Cl` gave a kinetic solubility of 25 µg/mL (≈ 89 µM).
In turn, `CCCc1nnc(NC(=O)CCC(=O)N2CCCCC2)s1` returned a kinetic solubility of more than 46.6 µg/mL.
Compound `CNC(=O)Cn1c(C)cc(=O)c2cccc(C)c21` gave a solubility (kinetic) of more than 36.6 µg/mL.
Compound `O=C(Cc1ccccc1F)N1CCN(CC(=O)N2CCCC2)CC1` gave a kinetic solubility of more than 50 µg/mL.
In turn, `O=C(OCC(=O)N1CCCCCC1)c1cccc(Cl)c1` had a kinetic solubility of more than 44.4 µg/mL.
With `Cc1ccc(C2Nc3ccccc3C(=O)N2CCCN2CCOCC2)cc1` (stereo unspecified), the kinetic solubility is 50.3 µg/mL (≈ 138 µM).
The figure for `O=C(CN1CCOCC1)Nc1ccc([N+](=O)[O-])cc1` is 39.3 µg/mL (≈ 148 µM).
Under `CCN1C(=O)NC(c2ccc(Cl)cc2)C2=C1CCCC2=O` (stereo unspecified) stands 44.2 µg/mL (≈ 145 µM); under `CN(C)c1ccc(NC(=O)COC(=O)c2ccc3c(c2)OCO3)cc1`, 10.8 µg/mL (≈ 31.5 µM).
Under `Cc1nc([N+](=O)[O-])cn1CC(=O)c1ccc(OC(F)(F)F)cc1` stands 3.3 µg/mL (≈ 10 µM); under `COC(=O)c1ccc(NC(=O)c2cccc(NC(=O)c3ccccc3)c2)cc1`, 0.9 µg/mL (≈ 2.4 µM).
`CCC(OC(=O)c1ccco1)C(=O)NCc1ccc(OC)cc1` (stereo unspecified): the solubility (kinetic) was more than 47.6 µg/mL.
Under `CSc1nc2nc3c(cc2c(=O)n1-c1cccc(C)c1)COC(C)(C)C3` stands 2.6 µg/mL (≈ 7.08 µM); under `CSc1ncc(CN2CCc3c([nH]c4ccccc34)C2C(C)(C)C)cn1` (stereo unspecified), 19.5 µg/mL (≈ 53.2 µM); under `Cc1nc2ccc(NC(=S)N3CCCC3)cc2nc1C`, 41.7 µg/mL (≈ 146 µM).
Take `CC(=O)C1=C(O)C(=O)N(Cc2ccccc2)C1c1ccc([N+](=O)[O-])cc1` (stereo unspecified): the solubility (kinetic) is more than 52.9 µg/mL.
Regarding `COc1ccccc1C(=O)NCCC(=O)Nc1ncccc1O`, the kinetic solubility was more than 47.3 µg/mL.
The figure for `CN(C)S(=O)(=O)c1ccc(C(=O)OCC(=O)N2CC3(C)CC2CC(C)(C)C3)cc1` (stereo unspecified) is more than 63.4 µg/mL.
Under `Cc1nc2ccccn2c1C(=O)C(=O)Nc1cc(F)ccc1F` stands 4 µg/mL (≈ 12.7 µM).
Under `Cc1c(C(=O)Nc2ccccc2)cc(-c2ccccc2)n1CCCN1CCOCC1` stands 36.8 µg/mL (≈ 91.2 µM); under `CCOc1ncccc1C(=O)Nc1cc(S(=O)(=O)N2CCOCC2)ccc1OCC(F)(F)F`, 0.5 µg/mL (≈ 1.02 µM).
